Tested on: Haematococcus pluvialis (Strain 2)
Assay: % cell lysis, culture dry weight and % carotenoid by UV method in 230 L reactors, salt treatment (Example 12)
Assay type: cell-based
Conditions: for Culture Dry Weight in 230L reactors: NaCl 2 ppt (1st 2 ppt column)
Description: This test was done side by side in flasks (0.1 L) and in reactors located in a greenhouse operating in conditions: reactor volume of 230 L; Daily PAR of 20 mol m^−2 d^−1; pH (not measured); and paddlewheel speed of 21 RPM. […] The flask cultures were mixed by shaking at 140 rpm and received 300-400 μmol/m^2 s of photosynthetically active radiation (PAR) in 12 hour light cycles and constant supply of 2.5% CO2. The motility of the culture was monitored by visual observation under a microscope. […] Nine 230 L reactors were also seeded with culture from bioreactor #2410 on the same day as the flasks and brought to 2 ppt concentration of salt. Once motility of the cells was reduced to <10% (day 3 of culture for flasks and day 2 for 230 L reactors) the level of salt was elevated to a point between 4-18 ppt and compared to the culture in two reactors remaining at 2 ppt salt. Flasks and 230 L reactors were monitored for percentage of cell lysis via visual observation under a microscope, culture dry weight (biomass accumulation in g/L), and percentage of chytrid infection via visual observation under a microscope. Carotenoid production, a proxy for determining astaxanthin, was quantified every other day of culture in the 230 L reactors using the UV method.

With [Cl-].[Na+] [NaCl, sodium chloride] the “% Cell Lysis in 230L reactors” value (4 ppt, 2 d) was 1.67%, the “% Cell Lysis in 230L reactors” value (4 ppt, 3 d) was 0.00% and the “% Cell Lysis in 230L reactors” value (4 ppt, 4 d) was 0.00%. The “% Cell Lysis in 230L reactors” value (4 ppt, 5 d) was 3.33%, the “% Cell Lysis in 230L reactors” value (4 ppt, 6 d) was 0.00% and the “% Cell Lysis in 230L reactors” value (4 ppt, 7 d) was 30.00%. For the same molecule, the “% Cell Lysis in 230L reactors” value (4 ppt, 8 d) was 23.33%, the “% Cell Lysis in 230L reactors” value (4 ppt, 9 d) was 13.33% and the “% Cell Lysis in 230L reactors” value (4 ppt, 10 d) was 11.67%. The “% Cell Lysis in 230L reactors” value (4 ppt, 11 d) was 5.00%, the “% Cell Lysis in 230L reactors” value (4 ppt, 12 d) was 6.67% and the “% Cell Lysis in 230L reactors” value (5 ppt, 2 d) was 3.18%. The “% Cell Lysis in 230L reactors” value (5 ppt, 3 d) was 5.00%, the “% Cell Lysis in 230L reactors” value (5 ppt, 4 d) was 3.33% and the “% Cell Lysis in 230L reactors” value (5 ppt, 5 d) was 1.67%. The “% Cell Lysis in 230L reactors” value (5 ppt, 6 d) was 21.67%, the “% Cell Lysis in 230L reactors” value (5 ppt, 7 d) was 10.00% and the “% Cell Lysis in 230L reactors” value (5 ppt, 8 d) was 1.67%. For the same molecule, the “% Cell Lysis in 230L reactors” value (5 ppt, 9 d) was 5.00%, the “% Cell Lysis in 230L reactors” value (5 ppt, 10 d) was 5.00% and the “% Cell Lysis in 230L reactors” value (5 ppt, 11 d) was 8.33%. The “% Cell Lysis in 230L reactors” value (5 ppt, 12 d) was 3.33%, the “% Cell Lysis in 230L reactors” value (6 ppt, 2 d) was 0.00% and the “% Cell Lysis in 230L reactors” value (6 ppt, 3 d) was 0.00%. For the same molecule, the “% Cell Lysis in 230L reactors” value (6 ppt, 4 d) was 8.33%, the “% Cell Lysis in 230L reactors” value (6 ppt, 5 d) was 0.00% and the “% Cell Lysis in 230L reactors” value (6 ppt, 6 d) was 13.33%. For the same molecule, the “% Cell Lysis in 230L reactors” value (6 ppt, 7 d) was 18.33%, the “% Cell Lysis in 230L reactors” value (6 ppt, 8 d) was 1.67% and the “% Cell Lysis in 230L reactors” value (6 ppt, 9 d) was 6.67%. For the same molecule, the “% Cell Lysis in 230L reactors” value (6 ppt, 10 d) was 1.67%, the “% Cell Lysis in 230L reactors” value (6 ppt, 11 d) was 6.67% and the “% Cell Lysis in 230L reactors” value (6 ppt, 12 d) was 5.00%. For the same molecule, the “% Cell Lysis in 230L reactors” value (7 ppt, 2 d) was 0.00%, the “% Cell Lysis in 230L reactors” value (7 ppt, 3 d) was 0.00% and the “% Cell Lysis in 230L reactors” value (7 ppt, 4 d) was 3.33%. For the same molecule, the “% Cell Lysis in 230L reactors” value (7 ppt, 5 d) was 1.67%, the “% Cell Lysis in 230L reactors” value (7 ppt, 6 d) was 18.33% and the “% Cell Lysis in 230L reactors” value (7 ppt, 7 d) was 8.33%. For the same molecule, the “% Cell Lysis in 230L reactors” value (7 ppt, 8 d) was 1.67%, the “% Cell Lysis in 230L reactors” value (7 ppt, 9 d) was 6.67% and the “% Cell Lysis in 230L reactors” value (7 ppt, 10 d) was 6.67%. For the same molecule, the “% Cell Lysis in 230L reactors” value (7 ppt, 11 d) was 11.67%, the “% Cell Lysis in 230L reactors” value (7 ppt, 12 d) was 5.00% and the “% Cell Lysis in 230L reactors” value (8 ppt, 2 d) was 3.18%. The “% Cell Lysis in 230L reactors” value (8 ppt, 3 d) was 3.33%, the “% Cell Lysis in 230L reactors” value (8 ppt, 4 d) was 0.00% and the “% Cell Lysis in 230L reactors” value (8 ppt, 5 d) was 3.33%. For the same molecule, the “% Cell Lysis in 230L reactors” value (8 ppt, 6 d) was 16.67%, the “% Cell Lysis in 230L reactors” value (8 ppt, 7 d) was 5.00% and the “% Cell Lysis in 230L reactors” value (8 ppt, 8 d) was 0.00%. The “% Cell Lysis in 230L reactors” value (8 ppt, 9 d) was 6.67%, the “% Cell Lysis in 230L reactors” value (8 ppt, 10 d) was 15.00% and the “% Cell Lysis in 230L reactors” value (8 ppt, 11 d) was 11.67%. The “% Cell Lysis in 230L reactors” value (8 ppt, 12 d) was 3.33%, the “% Cell Lysis in 230L reactors” value (10 ppt, 2 d) was 0.00% and the “% Cell Lysis in 230L reactors” value (10 ppt, 3 d) was 5.00%. The “% Cell Lysis in 230L reactors” value (10 ppt, 4 d) was 6.67%, the “% Cell Lysis in 230L reactors” value (10 ppt, 5 d) was 36.67% and the “% Cell Lysis in 230L reactors” value (10 ppt, 6 d) was 31.67%. The “% Cell Lysis in 230L reactors” value (10 ppt, 7 d) was 3.33%, the “% Cell Lysis in 230L reactors” value (10 ppt, 8 d) was 0.00% and the “% Cell Lysis in 230L reactors” value (10 ppt, 9 d) was 5.00%. For the same molecule, the “% Cell Lysis in 230L reactors” value (10 ppt, 10 d) was 3.33%, the “% Cell Lysis in 230L reactors” value (10 ppt, 11 d) was 6.67% and the “% Cell Lysis in 230L reactors” value (10 ppt, 12 d) was 5.00%. The “% Cell Lysis in 230L reactors” value (18 ppt, 2 d) was 0.00%, the “% Cell Lysis in 230L reactors” value (18 ppt, 3 d) was 3.33% and the “% Cell Lysis in 230L reactors” value (18 ppt, 4 d) was 13.33%. The “% Cell Lysis in 230L reactors” value (18 ppt, 5 d) was 5.00%, the “% Cell Lysis in 230L reactors” value (18 ppt, 6 d) was 26.67% and the “% Cell Lysis in 230L reactors” value (18 ppt, 7 d) was 20.00%. For the same molecule, the “% Cell Lysis in 230L reactors” value (18 ppt, 8 d) was 1.67%, the “% Cell Lysis in 230L reactors” value (18 ppt, 9 d) was 8.33% and the “% Cell Lysis in 230L reactors” value (18 ppt, 10 d) was 5.00%. The “% Cell Lysis in 230L reactors” value (18 ppt, 11 d) was 1.67%, the “% Cell Lysis in 230L reactors” value (18 ppt, 12 d) was 3.33% and the cell lysis (230 L reactors, all treatments except 10 ppt) was “below 30%”. The “Culture Dry Weight in 230L reactors” value (time 0 d) was 0.030 g/L, the “Culture Dry Weight in 230L reactors” value (time 1 d) was 0.042 g/L and the “Culture Dry Weight in 230L reactors” value (time 2 d) was 0.065 g/L. The “Culture Dry Weight in 230L reactors” value (time 4 d) was 0.145 g/L, the “Culture Dry Weight in 230L reactors” value (time 5 d) was 0.228 g/L and the “Culture Dry Weight in 230L reactors” value (time 6 d) was 0.173 g/L. The “Culture Dry Weight in 230L reactors” value (time 7 d) was 0.185 g/L, the “Culture Dry Weight in 230L reactors” value (time 8 d) was 0.273 g/L and the “Culture Dry Weight in 230L reactors” value (time 9 d) was 0.145 g/L. For the same molecule, the “Culture Dry Weight in 230L reactors” value (time 10 d) was 0.220 g/L and the “Culture Dry Weight in 230L reactors” value (time 11 d) was 0.145 g/L.
